Assay results taken from patent US20140155384A1, “COMPOUNDS AND METHODS OF TREATING DIABETES” (Medivation Technologies, Inc., priority 2011, published 2014).

Target: T1, human recombinant adrenergic α1D receptor (Homo sapiens, UniProt P25100)
T1 construct: expressed in transfected cells; host or cells: HEK-293
T1 sequence (P25100 1-572): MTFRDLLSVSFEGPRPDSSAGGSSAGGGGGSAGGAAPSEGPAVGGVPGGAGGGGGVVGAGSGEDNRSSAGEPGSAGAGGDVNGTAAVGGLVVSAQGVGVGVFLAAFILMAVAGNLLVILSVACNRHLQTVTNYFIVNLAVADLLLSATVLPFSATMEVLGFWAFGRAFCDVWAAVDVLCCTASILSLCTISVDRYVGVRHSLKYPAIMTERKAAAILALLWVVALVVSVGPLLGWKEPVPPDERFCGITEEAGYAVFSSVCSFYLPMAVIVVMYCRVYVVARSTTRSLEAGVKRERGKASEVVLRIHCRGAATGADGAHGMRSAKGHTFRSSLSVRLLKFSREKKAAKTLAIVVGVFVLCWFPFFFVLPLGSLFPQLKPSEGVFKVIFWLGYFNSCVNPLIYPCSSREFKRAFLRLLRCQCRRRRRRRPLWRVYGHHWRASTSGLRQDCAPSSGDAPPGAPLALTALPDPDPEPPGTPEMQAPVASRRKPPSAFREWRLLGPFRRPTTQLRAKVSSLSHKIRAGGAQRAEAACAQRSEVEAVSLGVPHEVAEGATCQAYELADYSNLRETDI
Test: Radioligand binding, adrenergic α1D receptor ([3H]Prazosin)
Details: 0.1 μM compound; HEK-293 cells; 0.6 nM [3H]Prazosin; read-out: Percentage inhibition of ligand binding, Adrenergic α1D
Experimental: Compounds were incubated with 0.6 nM [3H]Prazosin for 60 min at 25° C. Non-specific binding was estimated in the presence of 10 μM phentolamine. Receptor proteins were filtered and washed, the filters were then counted to determine [3H]Prazosin specifically bound. Compounds were screened at 1 μM or lower, using 1% DMSO as vehicle. Biochemical assay results are presented as the percent inhibition of specific binding in Table 2.

Row | SMILES | inhibition at 0.1 µM [%]
1 | Cc1csc(-c2cscc2-n2c3c(c4cc(C)ccc42)CN(C)CC3)c1 [Compound 50] | 51
2 | Cc1ccc2c(c1)c1c(n2-c2cscc2-c2ccc3cnccc3c2)CCN(C)C1 [Compound No. 68] | 68
3 | Cc1ccc2c(c1)c1c(n2-c2cscc2-c2ccc(C)s2)CCN(C)C1 [Compound No. 79] | 53
4 | Cc1ccc2c(c1)c1c(n2-c2ccccc2-c2ccc3c(ccn3C)c2)CCN(C)C1 [Compound No. 85, 2,8-dimethyl-5-(2-(1-methyl-1H-indol-5-yl)phenyl)-2,3,4,5-tetrahydro-1H-pyrido[4,3-b]indole] | 62
5 | Cc1ccc2c(c1)c1c(n2-c2ccccc2-c2cccn2C)CCN(C)C1 [Compound No. 100, 2,8-dimethyl-5-(2-(1-methyl-1H-pyrrol-2-yl)phenyl)-2,3,4,5-tetrahydro-1H-pyrido[4,3-b]indole] | 64

More lines, now with the values ahead:

Row | inhibition at 0.1 µM [%] | SMILES
6 | 69 | Cc1ccc2c(c1)c1c(n2-c2cscc2-c2ccc3c(ccn3C)c2)CCN(C)C1 [Compound 33]
7 | 79 | COc1ccc(-c2cscc2-n2c3c(c4cc(C)ccc42)CN(C)CC3)cc1 [Compound 37]
8 | 73 | Cc1ccc2c(c1)c1c(n2-c2cscc2-c2ccc(S(C)(=O)=O)cc2)CCN(C)C1 [Compound No. 76]
